According to ChEMBL document CHEMBL1201862, “PubChem BioAssay data set” (2004):
Calls of active or inactive are those of the source.

Key:
cells [1] = type: functional, cell-based
[2] = Luminescence Cell-Based Dose Retest to Confirm Inhibitors of Cancer Stem Cells. [Related pubchem assays (depositor defined):AID2717, AID2721]; type: functional; settings: Homo sapiens
[3] = Counterscreen for AddAB inhibitors: absorbance-based bacterial cell-based high throughput dose response assay for inhibitors of bacterial viability. [Related pubchem assays (depositor defined):AID435030, AID449728, AID449731, AID488942, AID488955, AID488956]; type: functional
[4] = Trypanosoma cruzi growth suppression in host cells – NIH3T3 host cells, beta-gal luminescence, confirmation (AID 2044); type: functional, cell-based;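 note: intracellular parasites grown in NIH/3T3 mouse fibroblasts as host cells; luminescent beta-galactosidase reporter signal from transgenic T. cruzi replicating inside host cells; inhibitors lower the luminescence signal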
Streptococcus = test: GAS UMAA2166 growth inhibition – luminescence, BacTiterGlo, counter-screen for streptokinase expression inhibitor project, dose response (AID 1915); type: functional, organism-based;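 note: potency for reduction of bacterial viability or growth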
INS1 = test: INS-1E survival protection against cytokine death – cell-based, luminescence, retest, dose response (AID 449756); type: functional; settings: Rattus norvegicus;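 note: cell death triggered by IL-1 beta plus TNF-alpha plus IFN-gamma mixture; protective hits raise ATP signal compared with cytokine alone wells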
[5] = biological target: Heat shock protein HSP 90-alpha (Homo sapiens, UniProt P07900); type: functional, organism-based
[6] = system: Streptococcus sp. 'group A'; test: Streptococcus pyogenes SK(-)GAS viability under kanamycin – luminescence, BacTiterGlo, confirmation, counter-screen for streptokinase expression inhibitor project, dose response (AID 1900); type: functional, organism-based
cells [7] = type: functional, cell-based; remark: listed apart in the source
[8] = NIH3T3 cell viability loss – ATP luminescence, mouse fibroblasts, counter-screen, dose response (AID 2010); type: functional, cell-based;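 note: cells exposed to compound for about 90 hours before reading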
Exodeoxyribonuclease V = biological target: T1, Exodeoxyribonuclease V (Escherichia coli (strain K12), UniProt P04993+P07648+P08394); test: RecBCD inhibition via phage-restricted bacterial growth – absorbance, V66 E. coli, mutant T4 phage, counter-screen for AddAB inhibitor project, dose response (AID 492957); type: functional, cell-based, Escherichia coli str. K-12 substr. MG1655
T1 sequence (P04993 whole entry): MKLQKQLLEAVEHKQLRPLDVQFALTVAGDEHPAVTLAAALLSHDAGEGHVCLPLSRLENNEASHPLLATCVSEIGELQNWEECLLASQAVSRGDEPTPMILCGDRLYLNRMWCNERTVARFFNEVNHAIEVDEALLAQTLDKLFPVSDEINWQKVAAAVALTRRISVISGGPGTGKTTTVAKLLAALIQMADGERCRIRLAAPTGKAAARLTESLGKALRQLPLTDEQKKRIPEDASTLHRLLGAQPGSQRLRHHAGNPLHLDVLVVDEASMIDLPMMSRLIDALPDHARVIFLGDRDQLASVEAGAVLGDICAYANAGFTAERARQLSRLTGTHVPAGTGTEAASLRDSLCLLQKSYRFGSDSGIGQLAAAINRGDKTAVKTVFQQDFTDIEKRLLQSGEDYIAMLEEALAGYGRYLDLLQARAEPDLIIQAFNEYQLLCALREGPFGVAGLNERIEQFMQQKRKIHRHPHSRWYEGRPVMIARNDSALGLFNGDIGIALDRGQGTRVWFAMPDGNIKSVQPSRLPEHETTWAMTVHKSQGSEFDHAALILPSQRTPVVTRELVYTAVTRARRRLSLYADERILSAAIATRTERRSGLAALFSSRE
T1 sequence (P07648 whole entry): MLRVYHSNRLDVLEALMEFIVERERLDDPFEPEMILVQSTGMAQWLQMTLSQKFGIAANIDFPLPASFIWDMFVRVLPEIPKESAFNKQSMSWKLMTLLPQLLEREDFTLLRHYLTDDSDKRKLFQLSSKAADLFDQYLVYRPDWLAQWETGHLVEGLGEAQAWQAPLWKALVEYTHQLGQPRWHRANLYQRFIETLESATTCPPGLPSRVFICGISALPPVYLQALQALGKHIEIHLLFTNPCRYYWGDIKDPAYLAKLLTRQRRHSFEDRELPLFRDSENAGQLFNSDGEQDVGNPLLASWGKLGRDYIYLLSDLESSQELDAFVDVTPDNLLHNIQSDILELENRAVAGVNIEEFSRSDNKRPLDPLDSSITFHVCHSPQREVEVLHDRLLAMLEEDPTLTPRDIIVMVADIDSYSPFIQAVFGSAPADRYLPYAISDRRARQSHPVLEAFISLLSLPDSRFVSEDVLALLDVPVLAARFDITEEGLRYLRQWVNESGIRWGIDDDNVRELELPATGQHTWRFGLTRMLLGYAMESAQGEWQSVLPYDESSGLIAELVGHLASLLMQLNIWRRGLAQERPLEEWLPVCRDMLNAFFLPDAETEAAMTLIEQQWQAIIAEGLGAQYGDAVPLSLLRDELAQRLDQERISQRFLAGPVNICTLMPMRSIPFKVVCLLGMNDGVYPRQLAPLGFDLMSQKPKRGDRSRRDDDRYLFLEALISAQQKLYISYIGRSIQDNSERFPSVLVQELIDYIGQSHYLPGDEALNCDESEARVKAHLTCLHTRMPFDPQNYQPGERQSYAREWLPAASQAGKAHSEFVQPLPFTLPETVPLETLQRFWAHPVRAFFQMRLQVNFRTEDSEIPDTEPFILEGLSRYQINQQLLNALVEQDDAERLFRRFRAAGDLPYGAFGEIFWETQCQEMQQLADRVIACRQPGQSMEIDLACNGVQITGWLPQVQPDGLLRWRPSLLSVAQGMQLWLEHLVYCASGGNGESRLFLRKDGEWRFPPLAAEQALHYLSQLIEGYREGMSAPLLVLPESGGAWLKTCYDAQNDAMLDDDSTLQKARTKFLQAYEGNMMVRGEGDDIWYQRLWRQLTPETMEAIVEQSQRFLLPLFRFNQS
T1 sequence (P08394 whole entry): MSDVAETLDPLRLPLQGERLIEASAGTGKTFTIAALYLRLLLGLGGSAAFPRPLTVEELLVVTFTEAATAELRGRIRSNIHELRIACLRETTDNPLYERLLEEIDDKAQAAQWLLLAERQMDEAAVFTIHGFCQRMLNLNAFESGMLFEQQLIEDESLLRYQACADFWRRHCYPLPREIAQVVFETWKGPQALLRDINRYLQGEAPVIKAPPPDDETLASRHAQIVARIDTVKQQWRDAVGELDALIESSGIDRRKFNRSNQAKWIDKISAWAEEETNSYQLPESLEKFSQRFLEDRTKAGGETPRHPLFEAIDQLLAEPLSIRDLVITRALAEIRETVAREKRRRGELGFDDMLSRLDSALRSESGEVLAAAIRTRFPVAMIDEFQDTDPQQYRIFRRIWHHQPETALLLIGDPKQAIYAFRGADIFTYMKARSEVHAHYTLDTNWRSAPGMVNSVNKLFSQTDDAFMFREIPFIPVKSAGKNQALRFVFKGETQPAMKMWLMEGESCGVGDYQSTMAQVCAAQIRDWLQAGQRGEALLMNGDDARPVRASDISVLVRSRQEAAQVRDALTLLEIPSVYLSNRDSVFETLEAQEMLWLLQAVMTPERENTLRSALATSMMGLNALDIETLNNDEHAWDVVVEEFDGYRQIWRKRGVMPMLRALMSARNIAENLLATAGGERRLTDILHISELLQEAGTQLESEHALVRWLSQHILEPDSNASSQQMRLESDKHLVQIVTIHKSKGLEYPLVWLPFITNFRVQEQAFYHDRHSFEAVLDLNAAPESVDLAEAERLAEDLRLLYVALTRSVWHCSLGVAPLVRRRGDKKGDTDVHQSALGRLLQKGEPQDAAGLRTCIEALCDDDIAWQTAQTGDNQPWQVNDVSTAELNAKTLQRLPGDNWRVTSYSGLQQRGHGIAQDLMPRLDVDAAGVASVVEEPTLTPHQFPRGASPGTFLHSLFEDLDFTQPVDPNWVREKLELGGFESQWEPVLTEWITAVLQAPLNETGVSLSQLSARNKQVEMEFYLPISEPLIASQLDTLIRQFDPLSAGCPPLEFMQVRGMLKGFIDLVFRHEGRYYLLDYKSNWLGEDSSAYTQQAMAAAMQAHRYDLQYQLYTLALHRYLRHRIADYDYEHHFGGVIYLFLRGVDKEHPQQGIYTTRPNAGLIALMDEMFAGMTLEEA

[9] = biological target: T2, Short transient receptor potential channel 4 (Mus musculus, UniProt Q9QUQ5); test: block of DAMGO-driven TRPC4 calcium entry – cell-based, HEK293 TRPC4/mu-opioid, Fluo-4 calcium, dose response (AID 434942); type: functional;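 note: potency of inhibitors blocking the TRPC4 calcium response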
T2 sequence (Q9QUQ5 whole entry): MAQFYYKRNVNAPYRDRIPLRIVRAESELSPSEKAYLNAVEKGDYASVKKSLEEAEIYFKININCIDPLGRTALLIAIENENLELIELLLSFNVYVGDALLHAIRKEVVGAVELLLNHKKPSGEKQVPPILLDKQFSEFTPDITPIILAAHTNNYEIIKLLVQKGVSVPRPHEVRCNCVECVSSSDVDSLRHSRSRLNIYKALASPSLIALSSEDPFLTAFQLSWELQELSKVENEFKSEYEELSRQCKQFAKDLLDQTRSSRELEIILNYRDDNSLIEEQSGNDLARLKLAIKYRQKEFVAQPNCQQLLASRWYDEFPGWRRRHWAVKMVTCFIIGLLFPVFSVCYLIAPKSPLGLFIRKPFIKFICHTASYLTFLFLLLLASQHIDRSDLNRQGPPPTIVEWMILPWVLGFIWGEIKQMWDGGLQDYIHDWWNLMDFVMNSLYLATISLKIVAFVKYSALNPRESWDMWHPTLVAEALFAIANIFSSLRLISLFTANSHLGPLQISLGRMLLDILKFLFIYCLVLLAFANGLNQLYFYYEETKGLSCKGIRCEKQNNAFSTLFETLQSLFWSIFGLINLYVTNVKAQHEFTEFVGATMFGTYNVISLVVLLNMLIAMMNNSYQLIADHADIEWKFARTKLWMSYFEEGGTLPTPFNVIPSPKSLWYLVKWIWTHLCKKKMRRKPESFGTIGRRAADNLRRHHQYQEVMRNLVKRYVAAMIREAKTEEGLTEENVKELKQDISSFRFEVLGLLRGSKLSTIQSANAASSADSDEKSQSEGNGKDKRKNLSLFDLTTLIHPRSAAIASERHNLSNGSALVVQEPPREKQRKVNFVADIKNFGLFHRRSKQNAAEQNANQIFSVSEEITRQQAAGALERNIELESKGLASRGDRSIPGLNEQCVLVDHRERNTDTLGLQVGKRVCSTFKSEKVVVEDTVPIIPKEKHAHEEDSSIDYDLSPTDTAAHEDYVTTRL

HEK293 [10] = test: cells; type: functional, cell-based; settings: Homo sapiens
HEK293 [11] = test: NOD2 signaling inhibitors in MDP-stimulated cells, cell-based, uHTS, luminescence (AID 2001); type: functional; settings: Homo sapiens
HEK293 [12] = test: cells; type: functional, cell-based; settings: Homo sapiens; remark: listed apart in the source
HEK293 [13] = test: inhibition of NOD1-driven NF-kB reporter – cell-based, luminescence, uHTS, primary screen (AID 1578); type: functional; settings: Homo sapiens
HEK293 [14] = test: cells; type: functional, cell-based; settings: Homo sapiens; remark: listed apart in the source
[15] = biological target: Nucleotide-binding oligomerization domain-containing protein 2 (Homo sapiens, UniProt Q9HC29); test: inhibition of NOD2-driven NF-kB reporter – cell-based, luminescence, uHTS, HEK293 (AID 1566); type: functional
[16] = biological target: T3, Carboxy-terminal domain RNA polymerase II polypeptide A small phosphatase 1 (Homo sapiens, UniProt Q9GZU7); test: CTDSP1 inhibitors, concentration-response, biochemical, absorbance readout, ultra-high-throughput screen actives (AID 540297); type: functional
T3 sequence (Q9GZU7 whole entry): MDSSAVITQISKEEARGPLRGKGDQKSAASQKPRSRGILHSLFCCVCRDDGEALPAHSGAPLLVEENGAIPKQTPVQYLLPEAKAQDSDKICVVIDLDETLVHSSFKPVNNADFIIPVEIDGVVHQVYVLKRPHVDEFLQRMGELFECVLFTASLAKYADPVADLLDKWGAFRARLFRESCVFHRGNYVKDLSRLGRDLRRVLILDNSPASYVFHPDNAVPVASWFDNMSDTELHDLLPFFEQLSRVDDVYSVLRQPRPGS

Nucleotide-binding oligomerization domain-containing protein 2, sequence (Q9HC29 whole entry, the tested form may be a part): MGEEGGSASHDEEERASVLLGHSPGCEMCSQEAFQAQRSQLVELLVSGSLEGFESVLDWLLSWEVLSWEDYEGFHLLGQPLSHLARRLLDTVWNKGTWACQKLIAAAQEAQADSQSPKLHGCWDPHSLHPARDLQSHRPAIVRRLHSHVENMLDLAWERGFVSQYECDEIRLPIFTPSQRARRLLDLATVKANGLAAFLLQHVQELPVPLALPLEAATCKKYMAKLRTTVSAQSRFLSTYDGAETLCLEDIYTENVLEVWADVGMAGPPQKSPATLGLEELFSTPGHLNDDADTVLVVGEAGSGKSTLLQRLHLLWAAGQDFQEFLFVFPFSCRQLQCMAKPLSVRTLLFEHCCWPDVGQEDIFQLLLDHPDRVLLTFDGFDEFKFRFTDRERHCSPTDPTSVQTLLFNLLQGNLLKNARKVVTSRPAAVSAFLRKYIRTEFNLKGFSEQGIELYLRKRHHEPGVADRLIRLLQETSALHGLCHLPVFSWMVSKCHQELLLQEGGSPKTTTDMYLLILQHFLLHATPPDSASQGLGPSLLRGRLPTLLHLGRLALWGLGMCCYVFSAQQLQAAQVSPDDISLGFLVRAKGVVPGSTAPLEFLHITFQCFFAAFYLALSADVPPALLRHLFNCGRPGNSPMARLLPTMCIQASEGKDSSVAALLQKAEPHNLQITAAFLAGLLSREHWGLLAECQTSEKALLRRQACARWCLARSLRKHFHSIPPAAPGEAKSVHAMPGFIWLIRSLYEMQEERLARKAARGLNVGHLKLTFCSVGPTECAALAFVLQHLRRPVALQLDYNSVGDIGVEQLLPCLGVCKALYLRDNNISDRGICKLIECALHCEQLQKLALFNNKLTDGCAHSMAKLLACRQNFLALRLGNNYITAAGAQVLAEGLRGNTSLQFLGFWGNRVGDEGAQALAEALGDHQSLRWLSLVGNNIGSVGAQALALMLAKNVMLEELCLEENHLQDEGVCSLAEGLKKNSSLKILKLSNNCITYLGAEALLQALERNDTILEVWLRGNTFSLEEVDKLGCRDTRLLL

Structure (SMILES)	IC50 [3]	IC50 (Exodeoxyribonuclease V)	IC50 (HEK293 [10])	IC50 (HEK293 [11])	IC50 (HEK293 [12])	EC50 (HEK293 [13])	IC50 (HEK293 [14])	EC50 [15]	other results
CCCC(=O)NC(c1ccc2c(c1)OCO2)c1cc(Cl)c2cccnc2c1O (centres undefined)	> 119 µM (inactive)	> 119 µM (inactive)							EC50 (cells [1]): 47.7 µM (active); AC50 [2]: 3.06 µM (active); EC50 [4]: 0.912 µM (active); EC50 (Streptococcus): 7.69 µM (active); AC50 (INS1): 1.03 µM (active); AC50 [5]: 3.41 µM (active); EC50 [6]: 4.09 µM (active); EC50 (cells [7]): > 350 µM (not active); EC50 [8]: 2.21 µM (active)
Cc1nc(N2CCN(c3ccccn3)CC2)c2c(C)c(C(=O)N3CCN(c4ccccc4F)CC3)sc2n1			11 µM (active)	7.16 µM (inactive)	> 20 µM (inactive)	6.4 µM (active)	6.62 µM (active)	5.07 µM (active)	EC50 [9]: 1.68 µM (active)
CCS(=O)(=O)C1=NN2C(=N)/C(=C\c3ccc(OCCOc4cccc(OC)c4)c(OC)c3)C(=O)N=C2S1			> 20 µM (inactive)	> 20 µM (inactive)	> 20 µM (inactive)	> 20 µM (inactive)	> 20 µM (inactive)	3.32 µM (active)	IC50 [16]: 4.26 µM (active)
Cc1c(Cl)cccc1N=C(S)NCc1ccccc1Cl	> 119 µM (inactive)	> 119 µM (inactive)							
CSc1nc(N)nc2c1ncn2CC(=O)Nc1ccc(C)c(C)c1	> 118 µM (inactive)	> 118 µM (inactive)							
